Assay results: PMC9597362, “The thiophene α-terthienylmethanol isolated from Tagetes minuta inhibits angiogenesis by targeting protein kinase C isozymes α and β2” (Frontiers in Pharmacology, 2022)
Where two headings read alike, the source gives them in different places.

Tests used:
[1] = system: 1:1 mixture of recombinant PKC-α and -β2 isozymes; conditions: 1:1 mixture α and β, cited from earlier work; for Log(IC50/M): given as log of IC50 in M (negative)
[2] = system: bovine aortic endothelial cells (BAECs); assay: VEGF-induced tube formation assay; format: cell-based; conditions: for IC50: Bos taurus, BAEC; for antiangiogenic activity in tube formation: pure compounds, maximum concentration 30 μM
Protocol: The experiment was performed according to Arnaoutova and Kleinman ([Arnaoutova and Kleinman, 2010]). Briefly, BAECs (1.5 × 10^4 cells) were placed on a 96-well plate previously coated with Matrigel®. The plates were incubated for 18 h (37°C, 5% CO2) in the presence and absence of the tested extracts or the pure compounds, at a maximum concentration of 100 μg/ml and 30 μM, respectively, with the addition of VEGF (10 ng/ml) as angiogenic stimuli. […] Controls without or with ethanol (negative control) were simultaneously run. The final concentration of vehicle per well in this and all the experiments described herein was 1% v/v. […] The images were obtained with an inverted microscope and analyzed with the ImageJ software. The tubular structures were quantified. The percentages of inhibition (I%) were calculated as I% = [1−(total tube length treatment/total tube length control)] × 100. Each condition was assessed in triplicate. Each experiment was performed independently three times.

BAEC cells = assay: Matrigel (Boyden chamber) invasion assay, BAEC; format: cell-based, bovine; conditions: 24 h, VEGF 10 ng/ml chemoattractant, relative to control
MDA-MB-231 cells = assay: Matrigel (Boyden chamber) invasion assay, MDA-MB-231; format: cell-based, human; conditions: 30 μM, 16 h, 10% FBS chemoattractant
PKC-α = conditions: cited from earlier work; for Log(IC50/M): given as log of IC50 in M (negative)
PKC-β = conditions: cited from earlier work; for Log(IC50/M): given as log of IC50 in M (negative)

For O=Cc1ccc(-c2ccc(-c3ccc(C=O)s3)s2)s1 [DAT], the IC50 ([1]; ref Kim et al. (1998)) is listed as 0.3 µM and the “Log(IC50/M)” value ([1]; ref Kim et al. (1998)) is listed as −6.5229.

With OCc1ccc(-c2ccc(-c3cccs3)s2)s1 [Compound 3, 5-hydroxymethyl-2,2':5′,2″-terthiophene] the IC50 ([2]; conversion of the μM value, read-out: IC50 tube formation expressed) was ~0.8 µg/mL, the IC50 ([2]; pure compound, VEGF-induced, 18 h, read-out: IC50 tube formation) was 2.7 ± 0.4 µM and the “antiangiogenic effect compared with axitinib 10 μM” value ([2]; at 1.2 μM, p > 0.05) was “comparable to that of 10 μM of the potent angiogenesis inhibitor axitinib”. For the same compound, the invasive cells (BAEC cells; 10 μM) was 15.7 ± 2.5%, the invasive cells (BAEC cells; 30 μM) was 1.6 ± 0.4% and the “reduction of cell invasion” value (MDA-MB-231 cells) was 32.7 ± 3.1%. For the same compound, the “Log(IC50/M)” value (PKC-α; listed for PKC α, ref Kim et al. (1998)) was −5.3979, the “Log(IC50/M)” value (PKC-β; listed for PKC β, ref Kim et al. (1998)) was −5.3979 and the IC50 (PKC-β; listed for PKC β, source assay used 1:1 mixture of PKC-α and -β2, ref Kim et al. (1998)) was 4 µM. For the same compound, the IC50 ([1]; ref Kim et al. (1998)) was 4 µM.

In the case of OCCC#Cc1ccc(-c2cccs2)s1 [Compound 2, 5-(4-hydroxybut-1-ynyl)-2,2′-bithiophene], the “antiangiogenic activity in tube formation” value [2] is reported as “devoid of activity”.

For Cc1ccc(-c2ccc(C#CCCO)s2)s1 [Compound 1, 5′-methyl-[5-(4-hydroxy-1-butynyl)]-2,2′-bithiophene], the “antiangiogenic activity in tube formation” value [2] was “devoid of activity”.

For CN1CCN(c2nc(C3=C(c4c[nH]c5ccccc45)C(=O)NC3=O)c3ccccc3n2)CC1 [NVP, 3-(1H-indol-3-yl)-4-[2-(4-methylpiperazin-1-yl)quinazolin-4-yl]-1H-pyrrole-2,5-dione], the “Log(IC50/M)” value (PKC-α; PKC α, ref Evenou et al. (2009)) is given as −9.0223.

For CC1CNCCN1S(=O)(=O)c1cccc2cnccc12 (stereo not drawn) [H7, 1-(5-Isoquinolinesulfonyl)-2-methylpiperazine], the IC50 ([1]; ref Kinsella et al. (1992)) is listed as 40 µM and the “Log(IC50/M)” value ([1]; ref Kinsella et al. (1992)) is listed as −4.3979.

For c1csc(-c2ccc(-c3cccs3)s2)c1 [TT, Terthiophene], the IC50 ([1]; ref Kim et al. (1998)) is given as 10 µM and the “Log(IC50/M)” value ([1]; ref Kim et al. (1998)) is given as −5.0000.

For N=C(N)NCCNS(=O)(=O)c1cccc2cnccc12 [H4, N-(2-guanidinoethyl)isoquinoline-5-sulfonamide], the IC50 ([1]; ref Kinsella et al. (1992)) is given as 10 µM and the “Log(IC50/M)” value ([1]; ref Kinsella et al. (1992)) is given as −5.0000.

For CN(C)C[C@@H]1CCn2cc(c3ccccc32)C2=C(C(=O)NC2=O)c2cn(c3ccccc23)CCO1 [RUB, Ruboxistaurin], the IC50 (PKC-α; PKC α, ref Tang et al. (2008)) is listed as […], the “Log(IC50/M)” value (PKC-α; PKC α, ref Tang et al. (2008)) is listed as […] and the IC50 (PKC-β; PKC β, ref Tang et al. (2008)) is listed as […]. For the same compound, the “Log(IC50/M)” value (PKC-β; PKC β, ref Tang et al. (2008)) was […].
